Test results from ChEMBL document CHEMBL4266014, “Development of Hybrid Phospholipid Mimics as Effective Agonists for Liver Receptor Homologue-1” (ACS Med Chem Lett, 2018).
Active and inactive are the calls of the source. No cut-off for these calls is given here.

Each compound was assayed against Nuclear receptor subfamily 5 group A member 2 (Homo sapiens) (UniProt O00482) (assay: Agonist activity at recombinant full length human LRH1 expressed in HeLa cells up to 30 uM after 24 hrs by dual-glo luciferase reporter gene assay).
Chain of Nuclear receptor subfamily 5 group A member 2 (Homo sapiens) (O00482 whole entry): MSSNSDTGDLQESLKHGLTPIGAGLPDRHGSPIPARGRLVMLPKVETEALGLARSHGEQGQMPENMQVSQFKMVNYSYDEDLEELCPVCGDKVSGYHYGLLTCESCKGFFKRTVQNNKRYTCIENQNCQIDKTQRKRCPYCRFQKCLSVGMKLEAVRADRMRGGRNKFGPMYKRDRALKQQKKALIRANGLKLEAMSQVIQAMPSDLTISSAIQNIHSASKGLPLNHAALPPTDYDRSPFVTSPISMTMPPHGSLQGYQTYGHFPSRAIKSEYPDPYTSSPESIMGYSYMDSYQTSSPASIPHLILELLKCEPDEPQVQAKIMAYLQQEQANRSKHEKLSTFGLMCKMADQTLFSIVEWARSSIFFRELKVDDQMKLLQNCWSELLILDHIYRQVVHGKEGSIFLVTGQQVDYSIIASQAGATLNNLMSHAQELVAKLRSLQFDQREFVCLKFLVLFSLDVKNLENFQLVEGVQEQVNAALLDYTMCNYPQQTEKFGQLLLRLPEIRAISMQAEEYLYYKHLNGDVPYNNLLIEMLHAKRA
Type: cell-based

Activity, inactive:
C=C(c1ccccc1)[C@@]12CC[C@@H](O)[C@@H]1CC(CCCCCCCCOP(=O)([O-])OCC[N+](C)(C)C)=C2c1ccccc1, C=C(c1ccccc1)[C@@]12CC[C@@H](O)[C@@H]1CC(CCCCC(=O)O)=C2c1ccccc1, C=C(c1ccccc1)[C@@]12CC[C@@H](O)[C@@H]1CC(CCCCCC(=O)O)=C2c1ccccc1 (relative stereo), C=C(c1ccccc1)[C@@]12CC[C@@H](O)[C@@H]1CC(CCCCCCCOP(=O)([O-])OCC[N+](C)(C)C)=C2c1ccccc1, C=C(c1ccccc1)[C@@]12CC[C@@H](O)[C@@H]1CC(CCCCCCC(=O)O)=C2c1ccccc1 (relative stereo), C=C(c1ccccc1)[C@@]12CC[C@@H](O)[C@@H]1CC(CCCCCCOP(=O)([O-])OCC[N+](C)(C)C)=C2c1ccccc1, C=C(c1ccccc1)[C@@]12CC[C@@H](O)[C@@H]1CC(CCCC(=O)O)=C2c1ccccc1 (relative stereo)
